Test results reported in US11071727B2, “Therapeutic targeting of proteolytic cleavage of the mixed lineage leukemia gene product (MLL1) by taspase1 using kinase inhibitors” (Northwestern University, priority 2018, dated 2021).

Columns and labels:
MLL1 = assay: Western blot of full-length MLL1 protein levels in cells treated with CKII inhibitors; assay type: cell-based, human; conditions: 293T, MCF7 and HCT116 cells, 0-20 μM, 30 hours, Western blot with MLL1C antibody
Experimental: (§1) FIG. 5. CKII inhibitors selectively increase full-length MLL1 protein levels by decreasing the phosphorylation of MLL1 near the cleavage sites. (A) Conservation of the sequences flanking MLL1-CS2, MLL2 and TFIIA cleavage sites and phosphorylated serine and threonine residues after the cleavage sites (highlighted in red). (B) and (C) 293T cells were transfected with vector control (VT), WT, AA or DD reporter constructs of MLL1-p75 or TFIIA. Western blot was performed with anti-Flag antibody for MLL1 (p75: FL, p47: cleaved) or TFIIA (p54: FL, p47: cleaved). (D) and (E) 293T cells were transfected with WT or AA reporter constructs of MLL1-p75 or TFIIA in the presence or absence of HA-taspase1. Western blot was performed with anti-Flag antibody for MLL1 or TFIIA, or anti-HA antibody for taspase1. (F) 293T cells were infected with shRNAs against CKIIα or CKIIα′. Western blot was performed with anti-MLL1C antibody for MLL1 full-length protein levels, and CKIIα or CKIIα′ for knockdown efficiency. (G) 293T cells were treated with DMSO or 10 μM CX-4945 for 30 hours. Cells were harvested and lysed for Western blot against MLL1, MLL2 or TFIIA using β-tubulin as the loading control. (H) and (I) 293T taspase1 KO cells were pre-treated with CX-4945 (3 μM) or TTP22 (10 μM) for 30 hours. Whole cell lysates from the two conditions were incubated with increasing concentrations of his-taspase1 and subject to in vitro taspase1 assay.
FIG. 13. CKII inhibitors increase full-length MLL1 protein levels. (A) Prediction of kinases that phosphorylate MLL1 near the taspase1 cleavage site. (B) Structure of the CKII inhibitors CX-4945, TTP22, DMAT and TTB. (C) Comparison of the IC50 and molecular weight of the four CKII inhibitors. […] Quantification of the band intensities was performed by ImageJ software. (E) and (F) in vitro taspase1 cleavage assay. Taspase1 KO cell lysates were incubated with recombinant his-tagged taspase1 (0, 1, 10, 100 or 1000 ng) and subject to in vitro taspase1 cleavage assay. Cleavage efficiency was shown as the blotting for MLL1 and TFIIA using Hsp90 as the loading control.
Cell culture. […]

[1] = system: MLL1 cleavage by taspase1; assay: in vitro taspase1 cleavage assay on lysates of pretreated taspase1 KO cells; assay type: biochemical, human; conditions: 293T taspase1 KO cells pretreated 30 hours with CX-4945 (3 μM) or TTP22 (10 μM), compared with DMSO control
Experimental: as §1, with “(H) and (I) 293T taspase1 KO cells were pre-treated with CX-4945 (3 μM) or TTP22 (10 μM) for 30 hours. Whole cell lysates from the two conditions were incubated with increasing concentrations of his-taspase1 and subject to in vitro taspase1 assay.” left out
in vitro taspase1 cleavage assay. […] Cleavage efficiency was detected by western blot against MLL1C and TFIIA using Hsp90 as the loading control.

MLL1 chromatin occupancy = assay: ChIP-seq of MLL1 occupancy in 293T cells; assay type: cell-based, human; conditions: relative to DMSO control
Experimental: FIG. 6. CKII inhibition increases genome-wide MLL occupancy and excludes SEC recruitment in MLL leukemia cells. (A) and (B) MLL1C occupancy in CX-4945 or TTP22 treated cells were shown relative to DMSO control. […] (C) Track examples of the MLL1 occupancy at the promoter regions of ELF2 and C6orf211. (D) CX-4945 inhibition of leukemia cell proliferation. Multiple MLL leukemia (orange lines) and non-MLL leukemia (blue lines) were cultured with different doses of CX-4945 for 3 days. Cell number was determined by cell counter and normalized to DMSO control. (E) SEM cells were treated with 0, 5 or 10 μM of CX-4945 for 30 hours and western blot was performed to determine the MLL1 full-length protein levels and MLL-AF4 fusion protein levels. (F) MLL-AFF1, AFF4 and ELL2 occupancies were decreased by CX-4945 treatment in SEM cells.
ChIP-seq Analysis. 5×10^7 cells were used for each ChIP assay, as performed as previously described (Chen et al. 2015). Peaks were called with MACS v1.4.2 (Zhang et al. 2008) using default parameters and were annotated by the HOMER software (Heinz et al. 2010). Metaplots were generated using ngsplot (Shen et al. 2014). […] Differential occupancy of MLL1 was evaluated by edgeR, and peaks with Benjamini-Hochburg adjusted p-values less than 0.05 were considered to be differentially occupied. […]

Cc1ccc(-c2csc3ncnc(SCCC(=O)O)c23)cc1 [TTP22, 3-[[5-(4-Methylphenyl)thieno[2,3-d]pyrimidin-4-yl]thio]propanoic acid]
MLL1 full-length protein levels (MLL1): dose-dependent increase of MLL1 full-length protein levels
cleavage efficiency by recombinant taspase1 protein [1]: cleavage efficiency was significantly diminished
MLL1 occupancy (genome-wide) (MLL1 chromatin occupancy): global increase of MLL1 occupancy
